# Test results reported in patent publication US20230295115A1, “SUBSTITUTED ISOQUINOLINYLMETHYL AMIDES, ANALOGUES THEREOF, AND METHODS USING SAME” (priority 2020, published 2023).
# pEC50: −log10 of the molar value.
# System: HBV rcDNA
# Assay: HepDE19 assay with bDNA quantitation of HBV rcDNA
# Format: cell-based, hepatitis B virus (HBV)
# Details: HepDE19 cells, 7 day incubation, rcDNA measured by Quantigene 2.0 bDNA assay, top concentration 25 μM; read-out: DE-19bDNA EC50
# Experimental: HepDE19 assay with bDNA quantitation of HBV rcDNA:
# HepDE19 (50,000 cells/well) were plated in 96-well collagen-coated tissue-culture treated microtiter plates in DMEM/F12 medium supplemented with 10% fetal bovine serum, 1% penicillin-streptomycin and 1 μg/mL tetracycline and incubated in a humidified incubator at 37° C. and 5% CO2 overnight. Next day, the cells were switched to fresh medium without tetracycline and incubated for 4 hours at 37° C. and 5% CO2. […] The final DMSO concentration in the assay was 0.5%. The plates were incubated for 7 days in a humidified incubator at 37° C. and 5% CO2. Following a 7 day-incubation, the level of rcDNA present in the inhibitor-treated wells was measured using a Quantigene 2.0 bDNA assay kit (Affymetrix, Santa Clara, CA) with HBV specific custom probe set and manufacturers instructions. Concurrently, the effect of compounds on cell viability was assessed using replicate plates, plated at a density of 5,000 cells/well and incubated for 4 days, to determine the ATP content as a measure of cell viability using the cell-titer glo reagent (CTG; Promega Corporation, Madison, WI) as per manufacturer's instructions.
row,Compound,pEC50
1,"CC(c1c[nH]c(=O)c2cc(F)c(F)cc12)N(C)C(=O)c1cc2c(Cl)cccn2c1 (single isomer, unassigned) [Compound 77, 8-Chloro-N-(1-(6,7-difluoro-1-oxo-1,2-dihydroisoquinolin-4-yl)ethyl)-N-methylindolizine-2-carboxamide]",5.70
2,"CC(c1c[nH]c(=O)c2cc(F)c(F)cc12)N(C)C(=O)c1cc2c(Cl)cccn2c1 (single isomer, unassigned) [Compound 78, 8-Chloro-N-(1-(6,7-difluoro-1-oxo-1,2-dihydroisoquinolin-4-yl)ethyl)-N-methylindolizine-2-carboxamide]",8.00
3,"CC(c1c[nH]c(=O)c2cc(F)c(F)cc12)N(C)C(=O)c1cc2c(F)cccn2c1 (single isomer, unassigned) [Compound 79, N-(1-(6,7-Difluoro-1-oxo-1,2-dihydroisoquinolin-4-yl)ethyl)-8-fluoro-N-methylindolizine-2-carboxamide]",5.48
4,"CC(c1c[nH]c(=O)c2cc(F)c(F)cc12)N(C)C(=O)c1cc2c(F)cccn2c1 (single isomer, unassigned) [Compound 80, N-(1-(6,7-Difluoro-1-oxo-1,2-dihydroisoquinolin-4-yl)ethyl)-8-fluoro-N-methylindolizine-2-carboxamide]",7.70
5,"CC(c1c[nH]c(=O)c2c(F)c(F)ccc12)N(C)C(=O)c1cc2c(F)cccn2c1 (single isomer, unassigned) [Compound 81, N-(1-(7,8-Difluoro-1-oxo-1,2-dihydroisoquinolin-4-yl)ethyl)-8-fluoro-N-methylindolizine-2-carboxamide]",5.68
6,"CC(c1c[nH]c(=O)c2c(F)c(F)ccc12)N(C)C(=O)c1cc2c(F)cccn2c1 (single isomer, unassigned) [Compound 82, N-(1-(7,8-Difluoro-1-oxo-1,2-dihydroisoquinolin-4-yl)ethyl)-8-fluoro-N-methylindolizine-2-carboxamide]",7.15
7,"CC(c1c[nH]c(=O)c2cc(F)c(F)cc12)N(C)C(=O)c1cc2c([nH]1)CCC(F)(F)C2 (single isomer, unassigned) [Compound 88, N-(1-(6,7-Difluoro-1-oxo-1,2-dihydroisoquinolin-4-yl)ethyl)-5,5-difluoro-N-methyl-4,5,6,7-tetrahydro-1H-indole-2-carboxamide]",7.52
8,"CC(c1c[nH]c(=O)c2cc(F)c(F)cc12)N(C)C(=O)c1cc2c([nH]1)CCC(F)(F)C2 (single isomer, unassigned) [Compound 89, N-(1-(6,7-Difluoro-1-oxo-1,2-dihydroisoquinolin-4-yl)ethyl)-5,5-difluoro-N-methyl-4,5,6,7-tetrahydro-1H-indole-2-carboxamide]",5.74
9,"CC(c1c[nH]c(=O)c2c(F)c(F)ccc12)N(C)C(=O)c1cc2c([nH]1)CCC(F)(F)C2 (single isomer, unassigned) [Compound 90, N-(1-(7,8-Difluoro-1-oxo-1,2-dihydroisoquinolin-4-yl)ethyl)-5,5-difluoro-N-methyl-4,5,6,7-tetrahydro-1H-indole-2-carboxamide]",6.43
10,"CC(c1c[nH]c(=O)c2c(F)c(F)ccc12)N(C)C(=O)c1cc2c([nH]1)CCC(F)(F)C2 (single isomer, unassigned) [Compound 91, N-(1-(7,8-Difluoro-1-oxo-1,2-dihydroisoquinolin-4-yl)ethyl)-5,5-difluoro-N-methyl-4,5,6,7-tetrahydro-1H-indole-2-carboxamide]",5.14
11,"CC(c1c[nH]c(=O)c2c(F)c(F)ccc12)N(C)C(=O)c1cc2c(Cl)cccn2c1 (single isomer, unassigned) [Compound 92, 8-Chloro-N-(1-(7,8-difluoro-1-oxo-1,2-dihydroisoquinolin-4-yl)ethyl)-N-methylindolizine-2-carboxamide]",5.57
12,"CC(c1c[nH]c(=O)c2c(F)c(F)ccc12)N(C)C(=O)c1cc2c(Cl)cccn2c1 (single isomer, unassigned) [Compound 93, 8-Chloro-N-(1-(7,8-difluoro-1-oxo-1,2-dihydroisoquinolin-4-yl)ethyl)-N-methylindolizine-2-carboxamide]",7.40
13,"CC(c1c[nH]c(=O)c2cc(F)c(F)cc12)N(CCCO)C(=O)c1[nH]c2ccccc2c1Cl (single isomer, unassigned) [Compound 94, 3-Chloro-N-(1-(6,7-difluoro-1-oxo-1,2-dihydroisoquinolin-4-yl)ethyl)-N-(3-hydroxypropyl)-1H-indole-2-carboxamide]",4.72
14,"CC(c1c[nH]c(=O)c2cc(F)c(F)cc12)N(CCCO)C(=O)c1[nH]c2ccccc2c1Cl (single isomer, unassigned) [Compound 95, 3-Chloro-N-(1-(6,7-difluoro-1-oxo-1,2-dihydroisoquinolin-4-yl)ethyl)-N-(3-hydroxypropyl)-1H-indole-2-carboxamide]",6.40
15,"CC(c1c[nH]c(=O)c2cc(F)c(F)cc12)N(C)C(=O)c1cc2cc(Cl)ccn2c1 (single isomer, unassigned) [Compound 96, 7-Chloro-N-(1-(6,7-difluoro-1-oxo-1,2-dihydroisoquinolin-4-yl)ethyl)-N-methylindolizine-2-carboxamide]",5.34
16,"CC(c1c[nH]c(=O)c2cc(F)c(F)cc12)N(C)C(=O)c1cc2cc(Cl)ccn2c1 (single isomer, unassigned) [Compound 97, 7-Chloro-N-(1-(6,7-difluoro-1-oxo-1,2-dihydroisoquinolin-4-yl)ethyl)-N-methylindolizine-2-carboxamide]",7.05
17,"CC(c1c[nH]c(=O)c2cc(F)c(F)cc12)N(C)C(=O)c1cc2ccc(F)cn2c1 (single isomer, unassigned) [Compound 102, N-(1-(6,7-Difluoro-1-oxo-1,2-dihydroisoquinolin-4-yl)ethyl)-6-fluoro-N-methylindolizine-2-carboxamide]",4.92
18,"CC(c1c[nH]c(=O)c2cc(F)c(F)cc12)N(C)C(=O)c1cc2ccc(F)cn2c1 (single isomer, unassigned) [Compound 103, N-(1-(6,7-Difluoro-1-oxo-1,2-dihydroisoquinolin-4-yl)ethyl)-6-fluoro-N-methylindolizine-2-carboxamide]",7.52
19,"CC(c1c[nH]c(=O)c2cc(F)c(F)cc12)N(C)C(=O)c1cc2cc(F)ccn2c1 (single isomer, unassigned) [Compound 108, N-(1-(6,7-Difluoro-1-oxo-1,2-dihydroisoquinolin-4-yl)ethyl)-7-fluoro-N-methylindolizine-2-carboxamide]",7.70
20,"CC(c1c[nH]c(=O)c2cc(F)c(F)cc12)N(C)C(=O)c1cc2cc(F)ccn2c1 (single isomer, unassigned) [Compound 109, N-(1-(6,7-Difluoro-1-oxo-1,2-dihydroisoquinolin-4-yl)ethyl)-7-fluoro-N-methylindolizine-2-carboxamide]",5.49
21,"CC(c1c[nH]c(=O)c2cc(F)c(F)cc12)N(C)C(=O)c1cc2ccc(Cl)cn2c1 (single isomer, unassigned) [Compound 110, 6-Chloro-N-(1-(6,7-difluoro-1-oxo-1,2-dihydroisoquinolin-4-yl)ethyl)-N-methylindolizine-2-carboxamide]",7.40
22,"CC(c1c[nH]c(=O)c2cc(F)c(F)cc12)N(C)C(=O)c1cc2ccc(Cl)cn2c1 (single isomer, unassigned) [Compound 111, 6-Chloro-N-(1-(6,7-difluoro-1-oxo-1,2-dihydroisoquinolin-4-yl)ethyl)-N-methylindolizine-2-carboxamide]",5.85
23,"CC(c1c[nH]c(=O)c2cc(F)c(F)cc12)N(C)C(=O)c1ccc(C(F)(F)F)c(F)c1 (single isomer, unassigned) [Compound 119, N-(1-(6,7-Difluoro-1-oxo-1,2-dihydroisoquinolin-4-yl)ethyl)-3-fluoro-N-methyl-4-(trifluoromethyl) benzamide]",5.40
24,"CC(c1c[nH]c(=O)c2cc(F)c(F)cc12)N(C)C(=O)c1ccc(C(F)(F)F)c(F)c1 (single isomer, unassigned) [Compound 120, N-(1-(6,7-Difluoro-1-oxo-1,2-dihydroisoquinolin-4-yl)ethyl)-3-fluoro-N-methyl-4-(trifluoromethyl) benzamide]",7.70

# Same assay, conditions: read-out: DE-19bDNA EC50; HepDE19 cells, 7 day incubation, rcDNA measured by Quantigene 2.0 bDNA assay, top concentration 25 μM
row,Compound,pEC50
1,"CC(c1c[nH]c(=O)c2c(F)c(F)ccc12)N(C)C(=O)c1cc2ccccn2c1 (single isomer, unassigned) [Compound 72, N-(1-(7,8-Difluoro-1-oxo-1,2-dihydroisoquinolin-4-yl)ethyl)-N-methylindolizine-2-carboxamide]",6.85
2,"CC(c1c[nH]c(=O)c2cc(F)c(F)cc12)N(CCCO)C(=O)Cc1cc2ccccc2[nH]1 (single isomer, unassigned) [Compound 83, N-(1-(6,7-Difluoro-1-oxo-1,2-dihydroisoquinolin-4-yl)ethyl)-N-(3-hydroxypropyl)-2-(1H-indol-2-yl)acetamide]",≤ 4.60
3,"CC(c1c[nH]c(=O)c2cc(F)c(F)cc12)N(CCCO)C(=O)Cc1cc2ccccc2[nH]1 (single isomer, unassigned) [Compound 84, N-(1-(6,7-Difluoro-1-oxo-1,2-dihydroisoquinolin-4-yl)ethyl)-N-(3-hydroxypropyl)-2-(1H-indol-2-yl)acetamide]",6.38
